Patent US20260102407A1, “TREATMENT METHODS” (priority 2020, published 2026)
In brackets after ≈: the same amount, converted by molar mass. Entries after “also recorded” stand apart in the source; their conditions may differ.

Legend:
[1] = target: T1, Recombinant human His-MEK1 (Homo sapiens, UniProt Q02750); experiment: SPR (Biacore T200) on immobilised His-MEK1; format: binding; settings: 15° C.; 20 mM HEPES, 150 mM NaCl, 5% DMSO pH 7.4
T1 construct: purchased ThermoFisher Scientific PV3303
Procedure: (§1) SPR. SPR was performed on a Biacore T200. The active and reference flow cells of a Xantec NIHMC Ni sensor chip were conditioned with 0.5M NaEDTA followed by 5 mM NiCl2 in immobilisation buffer (20 mM HEPES, 150 mM NaCl, pH 7.4). Recombinant human His-MEK1 and His-MEK2 (500 nM, ThermoFisher Scientific, cat. PV3303 and PV3615, respectively) were injected for 15 min at 10 μl min^−1 over separate active flow cells. All immobilisation was carried out at 25° C. Following immobilisation, the temperature was lowered to 15° C., and the buffer changed to 20 mM HEPES, 150 mM NaCl, 5% DMSO pH 7.4. Samples of PD98059 (2.5-30 μM in running buffer) and BT2 (1.25-15 μM) were injected at a flow rate of 30 μl min^−1 over immobilised MEK1 and MEK2. Solvent correction was applied to the data using a DMSO standard curve. Data were analysed using the Biacore T200 Evaluation software. Prior to SPR, limits of compound solubility were determined using ^1H 1D NMR.

ERK phosphorylation = experiment: Western blot, IL-1β-inducible ERK phosphorylation in HMEC-1; format: cell-based, human; settings: 20 ng/ml IL-1β 15 min
Procedure: Western blot analysis with extracts of cells treated with […]. HMEC-1 (80-90% confluency) were arrested in serum-free MCDB131 medium (Invitrogen, MD) without any growth factor for 48 h. Cells were treated with 30 μM compound in serum-free medium for 4 h, and incubated with 20 ng/ml IL-1β (Sigma, cat. SRE3083) in serum-free medium with the same concentration of compound for up to 4 h, unless otherwise indicated. Total protein was harvested as previously described using RIPA buffer with protease inhibitors. Proteins were resolved on 4-20% (w/v) SDS-polyacrylamide gradient gels and transferred to Immobilon-P PVDF membranes. Membranes were blocked with 5% skim milk and incubated with rabbit monoclonal FosB (cat. 2251S, 1:1000, Cell Signaling, USA), rabbit monoclonal VCAM-1 (cat. 13662S, 1:1000, Cell Signaling, USA), rabbit monoclonal p44/42 MAPK (cat. 4695S, 1:1000, Cell Signaling, USA), rabbit polyclonal p38 MAPK (cat. 9212S, 1:1000, Cell Signaling, USA), rabbit polyclonal SAPK/JNK (cat. 9252S, 1:1000, Cell Signaling, USA), rabbit monoclonal phospho-SAPK/JNK (cat. 4671S, 1:1000, Cell Signaling, USA), rabbit monoclonal phospho-p38 MAPK (cat. 4511S, 1:1000, Cell Signaling, USA), or, mouse monoclonal phospho-p44/42 MAPK antibodies (cat. 9106S, 1:2000, Cell Signaling, USA) at 4° C. overnight or mouse monoclonal β-actin antibodies (cat. A5316, 1:10000, Sigma-Aldrich) antibodies at 22° C. for 1 h. Membranes were then incubated with horseradish peroxidase conjugated secondary goat anti-rabbit (cat. P0448, 1:1000, DAKO Cytomation, Denmark) or goat anti-mouse (cat. P0447, 1:1000, DAKO Cytomation, Denmark) antibodies for 1 h. Chemiluminescence was detected using the Western Lightning Chemiluminescence system and ImageQuant™ LAS 4000 biomolecular imager. Band intensity in images generated with the LAS 4000 using the same settings were quantified by NIH ImageJ.

HMEC-1 = experiment: Endothelial network formation assay on Matrigel; format: cell-based, human
Procedure: Endothelial network formation assay. HMEC-1 (4×10^4 cells/well) in MCDB131 containing 1% FBS and compound (1 or 3 μM) or curcumin (1-40 μM) and 50 ng/ml FGF-2 were added to 96-well plates coated overnight at 4° C. with 100 μl of growth factor-reduced reconstituted basement membrane matrix (Matrigel, cat. 354230, Corning, NY). Network formation was observed over subsequent hours and photographed under 4× or 10× objective using an Olympus CKX41 microscope.

[2] = Limit of compound solubility by 1H 1D NMR; format: physicochemical; settings: 1H 1D NMR spectroscopy
Procedure: as §1

[3] = target: T2, Recombinant human His-MEK2 (Homo sapiens, UniProt P36507); experiment: SPR (Biacore T200) on immobilised His-MEK2; format: binding; settings: 15° C.; 20 mM HEPES, 150 mM NaCl, 5% DMSO pH 7.4
T2 construct: purchased ThermoFisher Scientific PV3615
T2 sequence (P36507 whole entry): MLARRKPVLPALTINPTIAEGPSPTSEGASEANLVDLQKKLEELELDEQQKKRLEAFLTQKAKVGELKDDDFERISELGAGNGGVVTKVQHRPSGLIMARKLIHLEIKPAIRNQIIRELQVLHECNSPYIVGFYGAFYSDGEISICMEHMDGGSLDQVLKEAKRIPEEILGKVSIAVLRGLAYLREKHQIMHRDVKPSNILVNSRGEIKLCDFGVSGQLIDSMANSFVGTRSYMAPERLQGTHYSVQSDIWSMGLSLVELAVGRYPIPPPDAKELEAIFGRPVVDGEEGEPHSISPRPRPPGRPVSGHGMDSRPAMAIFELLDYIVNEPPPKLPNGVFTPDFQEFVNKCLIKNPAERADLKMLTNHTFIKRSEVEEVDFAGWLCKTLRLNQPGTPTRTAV
Procedure: as §1

T1 sequence (Q02750 whole entry): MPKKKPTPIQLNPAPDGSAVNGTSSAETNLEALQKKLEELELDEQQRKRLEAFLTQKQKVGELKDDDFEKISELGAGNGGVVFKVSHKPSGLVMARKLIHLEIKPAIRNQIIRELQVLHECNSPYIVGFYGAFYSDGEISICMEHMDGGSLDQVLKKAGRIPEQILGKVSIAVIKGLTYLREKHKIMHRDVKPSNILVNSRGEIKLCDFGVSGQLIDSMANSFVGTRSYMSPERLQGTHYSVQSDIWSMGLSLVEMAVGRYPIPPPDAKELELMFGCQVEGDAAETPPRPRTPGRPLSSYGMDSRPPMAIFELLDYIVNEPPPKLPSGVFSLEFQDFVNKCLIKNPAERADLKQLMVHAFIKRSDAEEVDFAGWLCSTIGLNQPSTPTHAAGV

binding to His-MEK1 (SPR) [1]: some interaction with MEK1
solubility [2]: 8 ± 2 µM (≈ 2.84 µg/mL)
binding to His-MEK2 (SPR) [3]: but not MEK2
Compound: CCN1C(=O)c2cc(NC(=O)OCC(C)C)ccc2Oc2ccccc21 [BT2-IC, isobutyl (10-ethyl-11-oxo-10,11-dihydrodibenzo[b,f][1,4]oxazepin-2-yl)carbamate]
IL-1β-inducible ERK phosphorylation (FIG. 5D) (ERK phosphorylation; 1 μM): not at 1 μM
IL-1β-inducible ERK phosphorylation (FIG. 13A) (ERK phosphorylation; 3 μM): inhibited both ERK phosphorylation (FIG. 13A) and network formation (FIG. 13B) at 3 μM (albeit less potently than BT2)
inhibition of network formation on Matrigel (FIG. 5B) (HMEC-1; 1 μM): not at 1 μM
inhibition of network formation on Matrigel (FIG. 13B) (HMEC-1; 3 μM): some inhibition of network formation at higher concentrations; also recorded: inhibited both ERK phosphorylation (FIG. 13A) and network formation (FIG. 13B) at 3 μM (albeit less potently than BT2)
